According to article PMC9112550, “Optimization of the antimicrobial peptide Bac7 by deep mutational scanning” (BMC Biology, 2022):
Values after ≈ are worked out from the molar mass of the structure shown.

Experiments:
[1] = system: E. coli TOP10; format: cell-based; settings: data not shown
Protocol: Bacterial cells were grown in cation-adjusted Mueller Hinton Broth (MHB II) overnight to stationary phase. The cultures were then supplemented with 200 g l^−1 glycerol, aliquoted, and frozen at −80°C. […] The purified peptides were thawed and the concentration was determined by RP-HPLC as described before. The peptides were diluted with sterile water to 4-fold the desired assays starting concentration and to a final volume of 50 μl. […] The first well of each MIC dilution series was filled with 20 μl of 2-fold concentrated MHB II, wells 2–11 with 20 μl of MHB II, and well 12 with 40 μl MHB II (sterility control). Next, 20 μl of the peptide dilution was added to the first well, mixed, and a log2-serial dilution was performed from wells 1 to 10 (20 μl transfer volume). Well 11 served as growth control (i.e., no peptide added). In the last step, 20 μl of the bacterial cell suspension was added to wells 1–11 either using the pipetting robot (E. coli TOP10, BW25113, BW25113 ΔsbmA, and ATCC 25922) or by manual pipetting (E. coli clinical isolates). The plates were sealed airtight and incubated for 18 h without shaking at 37°C before reading the OD using an Infinite 200 PRO plate reader (Tecan, Männedorf, CH). […] All MIC experiments were determined in technical replicate.

[2] = system: E. coli TOP10; assay: Membrane damage assay in MHB II (GFP loss, PI uptake); format: cell-based; settings: at its MIC

## CC[C@H](C)[C@H](NC(=O)CN)C(=O)NCC(=O)N[C@@H](C)C(=O)N[C@H](C(=O)N[C@@H](CC(C)C)C(=O)N[C@@H](CCCCN)C(=O)N[C@H](C(=O)N[C@@H](CC(C)C)C(=O)N[C@H](C(=O)N[C@H](C(=O)NCC(=O)N[C@@H](CC(C)C)C(=O)N1CCC[C@H]1C(=O)N[C@@H](C)C(=O)N[C@@H](CC(C)C)C(=O)N[C@H](C(=O)N[C@@H](CO)C(=O)N[C@@H](Cc1c[nH]c2ccccc12)C(=O)N[C@H](C(=O)N[C@@H](CCCCN)C(=O)N[C@@H](CCCNC(=N)N)C(=O)N[C@@H](CCCCN)C(=O)N[C@@H](CCCNC(=N)N)C(=O)N[C@@H](CCC(N)=O)C(=O)N[C@@H](CCC(N)=O)C(N)=O)[C@@H](C)CC)[C@@H](C)CC)[C@@H](C)O)[C@@H](C)O)C(C)C)C(C)C [melittin]
[1]
  MIC: 5.0 µM (≈ 14.2 µg/mL)
[2]
  PI uptake and loss of GFP: rapidly induced PI uptake and loss of GFP
